Source: article PMC11722180, “Structure–Activity Relationship Studies of Tetracyclic Pyrrolocarbazoles Inhibiting Heterotetrameric Protein Kinase CK2” (Molecules, 2024)
Structures can show the parent of a compound that is named as a salt.

Tests used:
[1] = target: T1, CK2α/CK2β interaction (human CK2α1–335, human CK2β1–193) (Homo sapiens, UniProt P68400); test: Microscale thermophoresis (MST) assay of the CK2α/CK2β subunit interaction; type: binding; details: for Inhibition of CK2α/CK2β Interaction Ki / Ki: MST, global analysis, KD′ = KD [1 + (ccompound/Ki)], n.s. = KD′ not significantly different from KD; for Ki: read-out: Inhibition of CK2α/CK2β Interaction Ki
T1 construct: human CK2α^1–335; made in house
T1 sequence (P68400 1-335): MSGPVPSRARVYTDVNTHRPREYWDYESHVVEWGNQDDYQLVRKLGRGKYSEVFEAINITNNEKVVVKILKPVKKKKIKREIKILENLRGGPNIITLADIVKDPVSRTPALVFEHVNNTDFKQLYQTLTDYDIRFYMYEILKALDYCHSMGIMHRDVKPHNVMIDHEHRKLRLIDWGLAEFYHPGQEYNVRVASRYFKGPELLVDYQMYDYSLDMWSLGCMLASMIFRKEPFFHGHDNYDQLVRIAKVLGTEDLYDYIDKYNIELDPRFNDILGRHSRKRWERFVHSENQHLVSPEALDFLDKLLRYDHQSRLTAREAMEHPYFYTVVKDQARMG
Procedure: A microscale thermophoresis (MST) assay was used to determine the interaction of the CK2α and CK2β subunits. In this assay, a constant concentration of the fluorescently labeled CK2β subunit was added to increasing concentrations of the CK2α subunit and the thermophoretic shift was recorded, respectively. […] The same experiment was performed in the presence of 20, 50, or 100 µM of the test compounds (see Table 1). An increased KD′ value in the presence of the test compounds was evaluated as the inhibition of the association of the CK2α and CK2β subunits. The increased KD′ value was then transformed together with the employed concentration of the test compound into the Ki value for the inhibition of the CK2α/CK2β association (formula see Supporting Information).
The compounds were investigated at a final concentration of 20, 50, or 100 µM. […] Data analysis and statistical evaluation were conducted with GraphPad Prism v.6 for Windows (GraphPad Software, La Jolla, CA, USA, www.graphpad.com).

[2] = tested on: CK2; details: cited from earlier work

| Compound | Kd [1] [nM] | Inhibition of CK2α/CK2β Interaction Ki [1] | Ki [1] [nM] | also measured |
| --- | --- | --- | --- | --- |
| CCOC(=O)[C@H]1c2[nH]c3ccccc3c2[C@H](c2ccc(N)cc2)[C@@H]2C(=O)NC(=O)[C@@H]21 (racemic) [(±)-22a, Ethyl (3aRS,4SR,10RS,10aRS)-10-(4-aminophenyl)-1,3-dioxo-1,2,3,3a,4,5,10,10a-octahydropyrrolo[3,4-b]carbazole-4-carboxylate∙HCl] | 31 ± 11 | n.s. | – | – |
| CCOC(=O)[C@@H]1c2[nH]c3ccccc3c2[C@@H](c2ccc(NC(=O)c3ccc(OC)cc3)cc2)[C@H]2C(=O)N(Cc3ccccc3)C(=O)[C@H]21 (racemic) [(±)-23, Ethyl (3aRS,4SR,10RS,10aRS)-2-benzyl-10-[4-(4-methoxybenzamido)phenyl]-1,3-dioxo-1,2,3,3a,4,5,10,10a-octahydropyrrolo[3,4-b]carbazole-4-carboxylate] | 24 ± 9 | n.s. | – | Inhibition of CK2α/CK2β Interaction Ki ([1]; listed as 23): did not result in a significant inhibition |
| COc1cc([C@@H]2c3c([nH]c4ccccc34)[C@@H](C(=O)NCCc3c[nH]c4ccccc34)[C@@H]3C(=O)NC(=O)[C@H]23)cc(OC)c1OC (racemic) [(±)-14, (3aRS,4SR,10RS,10aRS)-N-[2-(Indol-3-yl)ethyl]-1,3-dioxo-10-(3,4,5-trimethoxyphenyl)-1,2,3,3a,4,5,10,10a-octahydropyrrolo[3,4-b]carbazole-4-carboxamide] | 158 ± 17 | – | 3800 | – |
| NCc1cc(Cl)cc(-c2cccc3[nH]ccc23)c1 [CAM187] | – | – | – | Effect on kinase activity of CK2 [2]: not significantly affected |
| CCOC(=O)[C@@H]1c2[nH]c3ccccc3c2[C@@H](c2ccc([N+](=O)[O-])cc2)[C@H]2C(=O)NC(=O)[C@H]21 (racemic) [(±)-21a, Ethyl (3aRS,4SR,10RS,10aRS)-10-(4-nitrophenyl)-1,3-dioxo-1,2,3,3a,4,5,10,10a-octahydropyrrolo[3,4-b]carbazole-4-carboxylate] | 20 ± 10 | n.s. | – | – |
| Cc1ccc(N/C=C2\C(=O)CCc3c2oc2c(Cl)c(Cl)c(O)cc32)cc1 [2a] | – | – | – | IC50 ([2]; ATP competitive, read-out: CK2 inhibition IC50): 29 nM |
| COc1cc([C@@H]2c3c([nH]c4ccccc34)[C@@H](C(=O)Nc3nc4ccccc4[nH]3)[C@@H]3C(=O)NC(=O)[C@H]23)cc(OC)c1OC (racemic) [(±)-17, (3aRS,4SR,10RS,10aRS)-N-(1H-Benzimidazol-2-yl)-1,3-dioxo-10-(3,4,5-trimethoxyphenyl)-1,2,3,3a,4,5,10,10a-octahydropyrrolo[3,4-b]carbazole-4-carboxamide] | 93 ± 13 | – | 7100 | – |
| CCOC(=O)[C@H]1c2[nH]c3ccccc3c2[C@H](c2ccc(N)cc2)[C@@H]2C(=O)N(Cc3ccccc3)C(=O)[C@@H]21 (racemic) [(±)-22c, Ethyl (3aRS,4SR,10RS,10aRS)-10-(4-aminophenyl)-2-benzyl-1,3-dioxo-1,2,3,3a,4,5,10,10a-octahydropyrrolo[3,4-b]carbazole-4-carboxylate∙HCl] | 25 ± 15 | n.s. | – | Inhibition of CK2α/CK2β Interaction Ki ([1]; listed as 22c): did not result in a significant inhibition |

Further lines, with some results ahead:

| Kd [1] [nM] | Inhibition of CK2α/CK2β Interaction Ki [1] | Ki [1] [nM] | Compound | also measured |
| --- | --- | --- | --- | --- |
| 758 ± 338 | – | 1900 | COc1cc([C@@H]2c3c([nH]c4ccccc34)[C@@H](C(=O)O)[C@@H]3C(=O)NC(=O)[C@H]23)cc(OC)c1OC (racemic) [(±)-10, (3aRS,4SR,10RS,10aRS)-1,3-Dioxo-10-(3,4,5-trimethoxyphenyl)-1,2,3,3a,4,5,10,10a-octahydropyrrolo[3,4-b]carbazole-4-carboxylic acid] | – |
| 94 ± 24 | – | 7700 | COC(=O)[C@H](CCSC)NC(=O)[C@@H]1c2[nH]c3ccccc3c2[C@@H](c2cc(OC)c(OC)c(OC)c2)[C@H]2C(=O)NC(=O)[C@H]21 [(–)-19b, Methyl N-{[(3aR,4S,10R,10aR)-1,3-dioxo-10-(3,4,5-trimethoxyphenyl)-1,2,3,3a,4,5,10,10a-octahydropyrrolo[3,4-b]carbazol-4-yl]carbonyl}-(S)-methioninate] | – |
| 29 ± 7 | n.s. | – | COC(=O)[C@H](Cc1c[nH]cn1)NC(=O)[C@@H]1c2[nH]c3ccccc3c2[C@@H](c2cc(OC)c(OC)c(OC)c2)[C@H]2C(=O)NC(=O)[C@H]21 [(–)-20b, methyl N-{[(3aR,4S,10R,10aR)-1,3-dioxo-10-(3,4,5-trimethoxyphenyl)-1,2,3,3a,4,5,10,10a-octahydropyrrolo[3,4-b]carbazol-4-yl]carbonyl}-(S)-histidinate] | – |
| 14 ± 6 | n.s. | – | CCOC(=O)[C@@H]1c2[nH]c3ccccc3c2[C@@H](c2cc(OC)c(OC)c(OC)c2)[C@H]2C(=O)N(C)C(=O)[C@H]21 (racemic) [(±)-9b, Ethyl (3aRS,4SR,10RS,10aRS)-2-methyl-1,3-dioxo-10-(3,4,5-trimethoxyphenyl)-1,2,3,3a,4,5,10,10a-octahydropyrrolo[3,4-b]carbazole-4-carboxylate] | – |
| 17 ± 3 | n.s. | – | COc1cc([C@@H]2c3c([nH]c4ccccc34)[C@@H](C(=O)NCc3ccc(Cl)cc3)[C@@H]3C(=O)NC(=O)[C@H]23)cc(OC)c1OC (racemic) [(±)-13, (3aRS,4SR,10RS,10aRS)-N-(4-Chlorobenzyl)-1,3-dioxo-10-(3,4,5-trimethoxyphenyl)-1,2,3,3a,4,5,10,10a-octahydropyrrolo[3,4-b]carbazole-4-carboxamide] | – |
| 62 ± 19 | – | 14000 | COc1cc([C@@H]2c3c([nH]c4ccccc34)[C@@H](C(=O)NCc3ccccc3)[C@@H]3C(=O)NC(=O)[C@H]23)cc(OC)c1OC (racemic) [(±)-12, (3aRS,4SR,10RS,10aRS)-N-Benzyl-1,3-dioxo-10-(3,4,5-trimethoxyphenyl)-1,2,3,3a,4,5,10,10a-octahydropyrrolo[3,4-b]carbazole-4-carboxamide] | – |
| 72 ± 12 | – | 9700 | COc1cc([C@@H]2c3c([nH]c4ccccc34)[C@@H](C(=O)N3CCCCC3)[C@@H]3C(=O)NC(=O)[C@H]23)cc(OC)c1OC (racemic) [(±)-16, (3aRS,4SR,10RS,10aRS)-4-[(Piperidin-1-yl)carbonyl]-10-(3,4,5-trimethoxyphenyl)-4,5,10,10a-tetrahydropyrrolo[3,4-b]carbazole-1,3(2H,3aH)-dione] | – |
| 72 ± 2 | – | 9100 | COC(=O)[C@H](CO)NC(=O)[C@H]1c2[nH]c3ccccc3c2[C@H](c2cc(OC)c(OC)c(OC)c2)[C@@H]2C(=O)NC(=O)[C@@H]21 [(+)-18a, Methyl N-{[(3aS,4R,10S,10aS)-1,3-dioxo-10-(3,4,5-trimethoxyphenyl)-1,2,3,3a,4,5,10,10a-octahydropyrrolo[3,4-b]carbazol-4-yl]carbonyl}-(S)-serinate] | – |
| 132 ± 43 | – | 6000 | CNC(=O)[C@@H]1c2[nH]c3ccccc3c2[C@@H](c2cc(OC)c(OC)c(OC)c2)[C@H]2C(=O)NC(=O)[C@H]21 (racemic) [(±)-11, (3aRS,4SR,10RS,10aRS)-N-Methyl-1,3-dioxo-10-(3,4,5-trimethoxyphenyl)-1,2,3,3a,4,5,10,10a-octahydropyrrolo[3,4-b]carbazole-4-carboxamide] | – |
| 59 ± 25 | – | 32000 | CCOC(=O)[C@H]1c2[nH]c3ccccc3c2[C@H](c2cc(OC)c(OC)c(OC)c2)[C@@H]2C(=O)NC(=O)[C@@H]21 (racemic) [(±)-9a, Ethyl (3aRS,4SR,10RS,10aRS)-1,3-dioxo-10-(3,4,5-trimethoxyphenyl9a)-1,2,3,3a,4,5,10,10a-octahydropyrrolo[3,4-b]carbazole-4-carboxylate] | – |
| 89 ± 13 | – | 7400 | COc1cc([C@@H]2c3c([nH]c4ccccc34)[C@@H](C(=O)Nc3cccnc3)[C@@H]3C(=O)NC(=O)[C@H]23)cc(OC)c1OC (racemic) [(±)-15, (3aRS,4SR,10RS,10aRS)-1,3-Dioxo-N-(pyridin-3-yl)-10-(3,4,5-trimethoxyphenyl)-1,2,3,3a,4,5,10,10a-octahydropyrrolo[3,4-b]carbazole-4-carboxamide] | – |
